Laboratory results as given in patent US12569563B2, “Selective HDAC6 degraders and methods of use thereof” (DANA-FARBER CANCER INSTITUTE, INC., priority 2019, dated 2026).

Tests used:
[1] = test system: other identified HDAC proteins; experiment: Multiplexed TMT mass spectrometry proteomics in Kelly cells, other HDAC abundance; assay type: cell-based, human; settings: 1 μM, 2, 4, 8, and 16 hours
Experimental: Lysis buffer (8 M Urea, 50 mM NaCl, 50 mM 4-(2hydroxyethyl)-1-piperazineethanesulfonic acid (EPPS) pH 8.5, protease and phosphatase inhibitors from Roche®) were added to the cell pellets and homogenized by 20 passes through a 21 gauge (1.25 in. long) needle to achieve a cell lysate with a protein concentration between 1-4 mg mL^−1. A micro-BCA assay (Pierce™) was used to determine the final protein concentration in the cell lysate. 200 μg of protein for each sample were reduced and alkylated as described above.
Proteins were precipitated using methanol/chloroform. Four volumes of methanol were added to the cell lysate, followed by one volume of chloroform, and finally three volumes of water. The mixture was vortexed and centrifuged to separate the chloroform phase from the aqueous phase. […]
Anhydrous ACN was added to each peptide sample to a final concentration of 30% v/v, and labeling was induced with the addition of TMT reagent to each sample at a ratio of 1:4 peptide:TMT label. […] The sample channels were combined at a 1:1:1:1:1:1:1:1:1:1:1 ratio, desalted using Cis solid phase extraction cartridges (Waters) and analyzed by LC-MS for channel ratio comparison. Samples were then combined using the adjusted volumes determined in the channel ratio analysis and dried down in a speed vacuum. […]

[2] = biological target: T1, CRBN (Homo sapiens, UniProt Q96SW2); experiment: Cellular CRBN engagement assay (competition with dBET6, BRD4BD2-eGFP reporter); assay type: cell-based; settings: Flip-In 293 BRD4BD2-eGFP cells, 100 nM dBET6, 5 h
T1 construct: endogenous in cells; host or cells: Flp-In 293 cells stably expressing BRD4BD2-eGFP-P2A-mCherry
Text: The cellular CRBN engagement assay measures the cellular binding affinity which is the combination of the compound's cell permeability and their binding affinity to CRBN. This is done by measuring the ability of thalidomide-based degrader molecules to compete with pan-BET bromodomain degrader dBET6 (Nowak et al., Nat. Chem. Biol. 14:706-714 (2018)) for CRBN binding in cells. If no degrader compound is present in the cell, BRD4BRD2-eGFP is degraded by dBET6 via the proteasome system. […]
Cells were seeded at 30-50% confluency in either 24, 48 or 96 well plates (3524, 3548, 3596 respectively, Costar) a day before compound treatment. The inventive compounds were titrated in the presence of 100 nM dBET6 and then were incubated with cells for 5 h following trypsinization and resuspension in DMEM media, transferred into 96-well plates (353910, Falcon®) and analyzed by flow cytometer (Guava® easyCyte™ HT, Millipore®). Signal from at least 3000 events per well was acquired and the eGFP and mCherry florescence monitored. Data was analyzed using FlowJo® (FlowJo®, LCC). Forward and side scatter outliers, frequently associated with cell debris, were removed leaving >90% of total cells, followed by removal of eGFP and mCherry signal outliers, leaving 88-90% of total cells creating the set used for quantification. […]

| IC50 [2] [nM] | Structure (SMILES) | change in cellular protein levels of other identified HDAC proteins (heat map FIG. 5) [1] |
| --- | --- | --- |
|  | CN(C(=O)CCCNc1cccc2c1C(=O)N(C1CCC(=O)NC1=O)C2=O)c1ccc(NC(=O)CCCCCCC(=O)NO)cc1 (centres unmarked) [Compound 1, N^1-(4-(4-((2-(2,6-dioxopiperidin-3-yl)-1,3-dioxoisoindolin-4-yl)amino)-N-methylbutanamido)phenyl)-N^8-hydroxyoctanediamide] | did not affect the cellular protein levels of the other identified HDAC proteins |
| 1630 | CN(C(=O)CCCCCCCNc1cccc2c1C(=O)N(C1CCC(=O)NC1=O)C2=O)c1ccc(NC(=O)CCCCCCC(=O)NO)cc1 (centres unmarked) [Compound 3, N^1-(4-(8-((2-(2,6-dioxopiperidin-3-yl)-1,3-dioxoisoindolin-4-yl)amino)-N-methyloctanamido)phenyl)-N^8-hydroxyoctanediamide] |  |
